In patent publication US20230159453A1 (COCRYSTAL PHARMA, INC., priority 2020, published 2023) one finds IC50 data, which are given here for 28 molecules.

pIC50: −log10 of the molar value. Several values for one entry are separate records, joined by “and”; a condition that tells them apart may be missing. Equal entries are not always repeated.

For orientation: pIC50 means the IC50 on a negative log10 scale, so that one unit is a factor of ten.

This assay concerns the target SARS2 protease (Severe acute respiratory syndrome coronavirus 2, UniProt P0DTD1). As to the kind of experiment: SARS-CoV-2 protease inhibition assay (SARS2 FRET protease assay). It is filed as biochemical. The following applies: SARS-CoV-2 protease 25 nM, FRET, peptide substrate 1.3 μM, 30 minutes at 30° C., compounds 20 μM to 1.0 nM; read-out: IC50.

In the case of `CCOP(=O)(OCC)C(O)C(CC1CC2(CCN(C(C)=O)CC2)NC1=O)NC(=O)[C@H](CC(C)C)NC(=O)OCC(C)(C)c1cccc(Cl)c1` (stereo partly drawn) [Compound C84, 2-(3-Chlorophenyl)-2-methylpropyl ((2S)-1-((3-(8-acetyl-2-oxo-1,8-diazaspiro[4.5]decan-3-yl)-1-(diethoxyphosphoryl)-1-hydroxypropan-2-yl)amino)-4-methyl-1-oxopentan-2-yl)carbamate], the negative-log IC50 (pIC50) is 5.04.

As for `CCOCCNC(=O)C(=O)[C@H](C[C@@H]1CCNC1=O)NC(=O)[C@H](CC1CCCCC1)NC(=O)OC(c1ccccc1)C(C)(C)c1cccc(Cl)c1` (stereo partly shown) [Compound C271], the negative-log IC50 (pIC50) is 5.70.

`CC(C)(c1cccc(Cl)c1)C(OC(=O)N[C@@H](CC1CCCCC1)C(=O)N[C@@H](C[C@@H]1CCNC1=O)C(=O)C(=O)NC1CC1)c1ccc(Cl)cc1` (stereo partly drawn) [Compound C145, 2-(3-Chlorophenyl)-1-(4-chlorophenyl)-2-methylpropyl ((S)-3-cyclohexyl-1-(((S)-4-(cyclopropylamino)-3,4-dioxo-1-((S)-2-oxopyrrolidin-3-yl)butan-2-yl)amino)-1-oxopropan-2-yl) carbamate]: the pIC50 was 5.37.

Turning to `CC(C)C[C@H](NC(=O)OC(c1ccccc1)C(C)(C)c1cccc(Cl)c1)C(=O)N[C@@H](C[C@@H]1CCNC1=O)C(=O)CO` (stereo partly drawn) [Compound C236, 2-(3-Chlorophenyl)-2-methyl-1-phenylpropyl ((S)-1-(((S)-4-hydroxy-3-oxo-1-((S)-2-oxopyrrolidin-3-yl)butan-2-yl)amino)-4-methyl-1-oxopentan-2-yl)carbamate], the pIC50 is 6.57.

Regarding `CC(C)C[C@H](NC(=O)OC(Cc1ccccc1)c1ccccc1)C(=O)N[C@H](C=O)C[C@@H]1CCNC1=O` (stereo partly drawn) [Compound C38, 1,2-Diphenylethyl ((S)-4-methyl-1-oxo-1-(((S)-1-oxo-3-((S)-2-oxopyrrolidin-3-yl)propan-2-yl)amino)pentan-2-yl)carbamate], the negative logarithm of the IC50 (pIC50) was 7.80.

In the case of `CC(C)(c1cccc(Cl)c1)C(OC(=O)N[C@@H](CC1CCCCC1)C(=O)N[C@@H](C[C@@H]1CCNC1=O)C(=O)C(N)=O)c1ccc2c(c1)CCC2` (stereo partly drawn) [Compound C131, 2-(3-Chlorophenyl)-1-(2,3-dihydro-1H-inden-5-yl)-2-methylpropyl ((S)-1-(((S)-4-amino-3,4-dioxo-1-((S)-2-oxopyrrolidin-3-yl)butan-2-yl)amino)-3-cyclohexyl-1-oxopropan-2-yl)carbamate], the negative-log IC50 (pIC50) was 4.80.

Turning to `CC(C)C[C@H](NC(=O)OC(Cc1cccc(Cl)c1)c1ccccc1)C(=O)N[C@H](C=O)C[C@@H]1CCNC1=O` (stereo partly drawn) [Compound C104, 2-(3-Chlorophenyl)-1-phenylethyl ((S)-4-methyl-1-oxo-1-(((S)-1-oxo-3-((S)-2-oxopyrrolidin-3-yl)propan-2-yl)amino)pentan-2-yl) carbamate], the negative logarithm of the IC50 (pIC50) is 8.22.

Take `CC(=O)N1CCC2(CC1)CC(CC(NC(=O)[C@@H](CC1CCCCC1)NC(=O)c1cc3ccccc3[nH]1)C(=O)C(N)=O)C(=O)N2` (stereo partly drawn) [Compound C112, N-((2R)-1-((1-(8-acetyl-2-oxo-1,8-diazaspiro[4.5]decan-3-yl)-4-amino-3,4-dioxobutan-2-yl)amino)-3-cyclohexyl-1-oxopropan-2-yl)-1H-indole-2-carboxamide]: the pIC50 was 6.73.

`CC(C)(c1cccc(Cl)c1)C(OC(=O)N[C@@H](CC1CCCCC1)C(=O)N[C@H](C=O)C[C@@H]1CCNC1=O)c1ccc(F)cc1` (stereo partly drawn) [Compound C137, 2-(3-Chlorophenyl)-1-(4-fluorophenyl)-2-methylpropyl ((S)-3-cyclohexyl-1-oxo-1-(((S)-1-oxo-3-((S)-2-oxopyrrolidin-3-yl)propan-2-yl)amino)propan-2-yl) carbamate]: the pIC50 was 7.36.

In the case of `O=C[C@H](C[C@@H]1CCNC1=O)NC(=O)[C@H](CC1CCCCC1)NC(=O)O[C@H]1CCC[C@H]1Cc1cccc(Cl)c1` [Compound C224, (1S,2S)-2-(3-Chlorobenzyl) cyclopentyl ((S)-3-cyclohexyl-1-oxo-1-(((S)-1-oxo-3-((S)-2-oxopyrrolidin-3-yl)propan-2-yl)amino)propan-2-yl) carbamate], the negative logarithm of the IC50 (pIC50) is 6.74.

As for `O=C[C@H](CC1CC2(CCOCC2)NC1=O)NC(=O)[C@H](CC1CCCCC1)NC(=O)OCc1cccc(Cl)c1` (stereo partly drawn) [Compound C200, 3-Chlorobenzyl ((2S)-3-cyclohexyl-1-oxo-1-(((2S)-1-oxo-3-(2-oxo-8-oxa-1-azaspiro[4.5]decan-3-yl)propan-2-yl)amino)propan-2-yl)carbamate], the pIC50 is 9.19.

On to `COc1cccc(CC2(OC(=O)N[C@@H](CC(C)C)C(=O)N[C@@H](C[C@@H]3CCNC3=O)C(O)S(=O)(=O)O)CC2)c1` (stereo partly drawn) [Compound C49, (2S)-1-Hydroxy-2-((S)-2-(((1-(3-methoxybenzyl)cyclopropoxy)carbonyl)amino)-4-methylpentanamido)-3-((S)-2-oxopyrrolidin-3-yl)propane-1-sulfonate], for which the negative-log IC50 (pIC50) was 6.58.

Consider `CC(C)C[C@H](NC(=O)OC1(Cc2ccccc2)CCC1)C(=O)N[C@@H](C[C@@H]1CCNC1=O)C(=O)CCl` [Compound C194, 1-Benzylcyclobutyl ((S)-1-(((S)-4-chloro-3-oxo-1-((S)-2-oxopyrrolidin-3-yl)butan-2-yl)amino)-4-methyl-1-oxopentan-2-yl) carbamate], for which the pIC50 is 6.31.

In the case of `CC(C)C[C@H](NC(=O)OC(c1ccccc1)C(F)(F)c1cccc(Cl)c1)C(=O)N[C@@H](C[C@@H]1CCNC1=O)C(=O)CO` (stereo partly shown) [Compound C279], the negative logarithm of the IC50 (pIC50) is 5.18.

`CN(C)C(=O)CC[C@@H](C=O)NC(=O)C(CC(C)(C)C)NC(=O)OCc1cccc(Cl)c1` (stereo partly drawn) [Compound C22, 3-Chlorobenzyl (1-(((S)-5-(dimethylamino)-1,5-dioxopentan-2-yl)amino)-4,4-dimethyl-1-oxopentan-2-yl)carbamate]: the pIC50 was 5.42.

In the case of `CC(=O)N1CC2(CC(CC(C=O)NC(=O)[C@H](CC(C)C)NC(=O)OCc3cccc(Cl)c3)C(=O)N2)C1` (stereo partly drawn) [Compound C102, 3-chlorobenzyl ((2S)-1-((1-(2-acetyl-6-oxo-2,5-diazaspiro[3.4]octan-7-yl)-3-oxopropan-2-yl)amino)-4-methyl-1-oxopentan-2-yl)carbamate], the negative-log IC50 (pIC50) is 6.93.

Turning to `CC(C)C[C@H](NC(=O)OC1(Cc2cccc(Cl)c2)CC1)C(=O)N[C@@H](C[C@@H]1CCNC1=O)C(=O)C(N)=O` [Compound C88, 1-(3-Chlorobenzyl) cyclopropyl ((S)-1-(((S)-4-amino-3,4-dioxo-1-((S)-2-oxopyrrolidin-3-yl)butan-2-yl)amino)-4-methyl-1-oxopentan-2-yl)carbamate], the pIC50 is 5.89.

With `CC(C)C[C@H](NC(=O)O[C@@H](c1cccc(F)c1)C(C)(C)c1cccc(Cl)c1)C(=O)N[C@H](C=O)C[C@@H]1CCNC1=O` [Compound C268], the pIC50 was 7.70.

Take `CC(C)C[C@H](NC(=O)N(Cc1ccccc1)C1CCN(C(=O)OC(C)(C)C)CC1)C(=O)N[C@H](C=O)C[C@@H]1CCNC1=O` [Compound C37, Tert-butyl 4-(1-benzyl-3-((S)-4-methyl-1-oxo-1-(((S)-1-oxo-3-((S)-2-oxopyrrolidin-3-yl)propan-2-yl)amino)pentan-2-yl)ureido)piperidine-1-carboxylate]: the pIC50 is 6.86 and 6.58.

For `CC1(C)CC(C[C@@H](C=O)NC(=O)[C@H](CC2CCCCC2)NC(=O)OC2CCCC2Cc2cccc(Cl)c2)C(=O)N1` (stereo partly drawn) [Compound C156, 2-(3-Chlorobenzyl)cyclopentyl ((2S)-3-cyclohexyl-1-((1-(5,5-dimethyl-2-oxopyrrolidin-3-yl)-3-oxopropan-2-yl)amino)-1-oxopropan-2-yl)carbamate], the pIC50 is 7.28.

Turning to `O=C[C@H](C[C@@H]1CCNC1=O)NC(=O)[C@H](CC1CCCCC1)NC(=O)O[C@@H]1CCC[C@H]1Cc1cccc(Cl)c1` [Compound C262], the negative logarithm of the IC50 (pIC50) was 7.70.

In the case of `CC(C)C[C@H](NC(=O)OC(c1ccccc1)C(F)(F)c1cccc(Cl)c1)C(=O)N[C@@H](C[C@@H]1CCNC1=O)C(=O)C(N)=O` (stereo partly shown) [Compound C251], the negative logarithm of the IC50 (pIC50) is 11.10.

Take `CC(C)(c1cccc(Cl)c1)C(OC(=O)N[C@@H](CC1CCCCC1)C(=O)N[C@@H](C[C@@H]1CCNC1=O)C(=O)C(=O)O)c1ccc2ccccc2c1` (stereo partly drawn) [Compound C235, (3S)-3-((2S)-2-(((2-(3-Chlorophenyl)-2-methyl-1-(naphthalen-2-yl)propoxy)carbonyl)amino)-3-cyclohexylpropanamido)-2-oxo-4-((S)-2-oxopyrrolidin-3-yl)butanoic acid]: the pIC50 is 7.15.

Consider `CC(C)C[C@H](NC(=O)OC(c1ccccc1)C(C)(C)c1cccc(Cl)c1)C(=O)N[C@@H](C[C@@H]1CCNC1=O)C(=O)C(=O)N1CCNCC1` (stereo partly shown) [Compound C274], for which the pIC50 is 4.92.

On to `CC(C)(c1cccc(Cl)c1)C(OC(=O)N[C@@H](CC1CCCCC1)C(=O)N[C@@H](C[C@@H]1CCNC1=O)C(=O)C(N)=O)c1ccc(F)cc1` (stereo partly drawn) [Compound C135, 2-(3-Chlorophenyl)-1-(4-fluorophenyl)-2-methylpropyl ((S)-1-(((S)-4-amino-3,4-dioxo-1-((S)-2-oxopyrrolidin-3-yl)butan-2-yl)amino)-3-cyclohexyl-1-oxopropan-2-yl) carbamate], for which the pIC50 was 5.72.

Consider `CC(C)C[C@H](NC(=O)OC(c1ccccc1)C(C)(C)c1cccc(Cl)c1)C(=O)N[C@@H](C[C@@H]1CCNC1=O)C(=O)C(=O)NCCN(C)C` (stereo partly shown) [Compound C260], for which the pIC50 was 5.94.

As to `O=C(N[C@@H](CC1CCCCC1)C(=O)N[C@@H](C[C@H]1CC2(CCCCC2)NC1=O)C(=O)C(=O)NC1CC1)OCc1cccc(Cl)c1` [Compound C149, 3-Chlorobenzyl ((S)-3-cyclohexyl-1-(((S)-4-(cyclopropylamino)-3,4-dioxo-1-((S)-2-oxo-1-azaspiro[4.5]decan-3-yl)butan-2-yl)amino)-1-oxopropan-2-yl)carbamate], the negative-log IC50 (pIC50) was 5.40.

Regarding `CC(OC(=O)N[C@@H](CC1CCCCC1)C(=O)N[C@H](C=O)CCC(=O)N(C)CCc1ccccc1)c1cccc(Cl)c1` (stereo partly shown) [Compound C25], the pIC50 was 4.95.
